Measurements from patent US11767322B2 (BRISTOL-MYERS SQUIBB COMPANY, priority 2020, dated 2023).
Where two headings read alike, the source gives them in different places.

Columns and labels:
[1] = target: T1, His-GST-TVMV-hRIPK1(1-324) (Homo sapiens, UniProt Q13546); test: biochemical; type: binding
T1 construct: The coding region of human RIPK1(1-324) flanked by NdeI site at 5′ end; made in house; host or cells: Spodoptera frugiperda Sf9 insect cells (baculovirus, Bac-to-Bac)
T1 sequence (Q13546 1-324): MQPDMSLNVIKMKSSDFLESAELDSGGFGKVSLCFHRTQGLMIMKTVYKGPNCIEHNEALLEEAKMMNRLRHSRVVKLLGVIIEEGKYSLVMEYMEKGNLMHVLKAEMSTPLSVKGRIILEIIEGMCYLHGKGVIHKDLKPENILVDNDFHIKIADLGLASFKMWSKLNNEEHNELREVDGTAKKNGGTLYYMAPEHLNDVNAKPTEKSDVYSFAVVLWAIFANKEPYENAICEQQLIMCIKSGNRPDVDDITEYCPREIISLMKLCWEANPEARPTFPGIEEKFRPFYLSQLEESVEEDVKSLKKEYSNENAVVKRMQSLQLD

[2] = system: MLKL phosphorylation in HT29-L23 human colorectal adenocarcinoma cells; test: MLKL phosphorylation high-content assay; type: cell-based
[3] = target: GST-tagged PIK3Cδ in complex with PIK3R1 (Homo sapiens, UniProt O00329); test: PI3Kδ HTRF binding assay; settings: read-out: PIK3CD IC50
GST-tagged PIK3Cδ in complex with PIK3R1, sequence (O00329 whole entry): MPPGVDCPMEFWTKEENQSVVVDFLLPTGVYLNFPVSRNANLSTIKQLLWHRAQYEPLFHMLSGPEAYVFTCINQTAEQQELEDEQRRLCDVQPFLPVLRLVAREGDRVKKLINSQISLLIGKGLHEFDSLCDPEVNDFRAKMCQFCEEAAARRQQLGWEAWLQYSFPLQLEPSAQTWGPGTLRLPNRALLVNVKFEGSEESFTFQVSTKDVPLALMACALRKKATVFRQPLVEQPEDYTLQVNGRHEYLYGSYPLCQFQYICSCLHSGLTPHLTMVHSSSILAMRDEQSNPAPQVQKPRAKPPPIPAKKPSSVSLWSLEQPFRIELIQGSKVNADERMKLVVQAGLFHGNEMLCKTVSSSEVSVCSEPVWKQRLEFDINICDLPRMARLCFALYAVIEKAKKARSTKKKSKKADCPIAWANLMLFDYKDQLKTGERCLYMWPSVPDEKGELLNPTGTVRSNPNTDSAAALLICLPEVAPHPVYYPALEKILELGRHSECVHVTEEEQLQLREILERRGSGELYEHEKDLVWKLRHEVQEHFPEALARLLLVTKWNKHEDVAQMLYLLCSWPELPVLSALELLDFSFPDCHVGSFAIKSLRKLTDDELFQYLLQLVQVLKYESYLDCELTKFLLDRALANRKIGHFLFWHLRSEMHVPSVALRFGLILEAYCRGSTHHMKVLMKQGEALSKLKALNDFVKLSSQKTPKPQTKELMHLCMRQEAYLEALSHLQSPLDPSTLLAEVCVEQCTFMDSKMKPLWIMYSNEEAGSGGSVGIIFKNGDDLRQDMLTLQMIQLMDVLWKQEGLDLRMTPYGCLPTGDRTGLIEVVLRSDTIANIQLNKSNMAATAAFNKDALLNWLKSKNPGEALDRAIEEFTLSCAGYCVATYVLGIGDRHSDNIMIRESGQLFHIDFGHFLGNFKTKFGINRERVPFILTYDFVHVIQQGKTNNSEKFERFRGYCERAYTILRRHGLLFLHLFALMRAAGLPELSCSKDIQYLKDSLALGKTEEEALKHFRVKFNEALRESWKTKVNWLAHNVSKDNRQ
GST-tagged PIK3Cδ in complex with PIK3R1, sequence (P27986 whole entry partner): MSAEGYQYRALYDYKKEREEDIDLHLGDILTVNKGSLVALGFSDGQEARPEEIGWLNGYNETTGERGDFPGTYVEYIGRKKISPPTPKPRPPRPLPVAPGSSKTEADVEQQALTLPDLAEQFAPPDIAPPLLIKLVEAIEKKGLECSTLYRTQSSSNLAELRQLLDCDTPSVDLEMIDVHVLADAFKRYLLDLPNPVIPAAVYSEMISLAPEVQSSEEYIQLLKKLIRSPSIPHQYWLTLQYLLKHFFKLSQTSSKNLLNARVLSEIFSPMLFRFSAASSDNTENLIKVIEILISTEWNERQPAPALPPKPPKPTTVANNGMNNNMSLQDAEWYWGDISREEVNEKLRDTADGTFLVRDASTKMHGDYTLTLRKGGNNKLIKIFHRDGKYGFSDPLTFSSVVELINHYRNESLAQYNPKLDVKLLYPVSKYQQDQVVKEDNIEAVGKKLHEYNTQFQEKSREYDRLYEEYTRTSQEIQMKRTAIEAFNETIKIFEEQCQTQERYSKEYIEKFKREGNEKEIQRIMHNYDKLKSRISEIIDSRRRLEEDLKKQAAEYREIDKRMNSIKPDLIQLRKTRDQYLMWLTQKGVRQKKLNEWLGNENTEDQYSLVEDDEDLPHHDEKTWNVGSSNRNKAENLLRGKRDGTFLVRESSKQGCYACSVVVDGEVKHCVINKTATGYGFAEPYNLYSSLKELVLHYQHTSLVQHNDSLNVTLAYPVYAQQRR

[4] = HTRF probe displacement, 1 h at rt, read-out: RIPK1 IC50
[5] = Homo sapiens, 6 h, read-out: pMLKL IC50, HT29-L23 cells, necroptosis induced with TNFα, SMAC mimetic and Z-VAD, 6 h, maximal inhibition defined by Nec1s
[6] = HTRF probe displacement, 1 h at rt
[7] = read-out: pMLKL IC50, HT29-L23 cells, necroptosis induced with TNFα, SMAC mimetic and Z-VAD, 6 h, maximal inhibition defined by Nec1s
[8] = Table 22, compounds of the present invention, read-out: RPIK1 IC50

Row | SMILES | IC50 [1, 4] | IC50 [2, 5] | IC50 [3, 6] | IC50 [2, 7] | IC50 [1, 8] | IC50 ([2]; Homo sapiens, read-out: pMLKL IC50, Table 22, compounds of the present invention) | IC50 ([2]; HT29-L23 cells, necroptosis induced with TNFα, SMAC mimetic and Z-VAD, 6 h, maximal inhibition defined by Nec1s, read-out: pMLKL IC50) | IC50 [3] | IC50 ([2]; read-out: pMLKL IC50, Table 22, compounds of the present invention)
1 | Cc1ccc(-c2ccn3nc(N)nc3c2)c(F)c1C(=O)NCCC(C)(C)c1ccccc1 [Example 58, 3-(2-amino-[1,2,4]triazolo[1,5-a]pyridin-7-yl)-2-fluoro-6-methyl-N-(3-methyl-3-phenylbutyl)benzamide] | 2.1 nM | 2.3 nM | > 15000 nM |  |  |  |  |  | 
2 | COc1cc(Cl)ccc1C(O)CCNC(=O)c1c(C)ccc(-c2ccn3nc(N)nc3c2)c1F (single isomer, unassigned) [Example 65, 3-(2-amino-[1,2,4]triazolo[1,5-a]pyridin-7-yl)-N-(3-(4-chloro-2-methoxyphenyl)-3-hydroxypropyl)-2-fluoro-6-methylbenzamide] | 28 nM | 27 nM | > 15000 nM |  |  |  |  |  | 
3 | COc1ccc(-c2ccn3nc(N)nc3c2)c(F)c1C(=O)NCC(F)(F)C(O)c1ccc(Cl)c(Cl)c1 (stereo not shown) [Example 267, 3-{2-amino-[1,2,4]triazolo[1,5-a]pyridin-7-yl}-N-[3-(3,4-dichlorophenyl)-2,2-difluoro-3-hydroxypropyl]-2-fluoro-6-methoxybenzamide] | 2.8 nM |  | > 15000 nM | 1 nM |  |  |  |  | 
4 | Cc1ccc(-c2ccn3nc(N)nc3c2)c(F)c1C(=O)NCCC(O)c1ccccc1F (single isomer, unassigned) [Example 71, 3-(2-amino-[1,2,4]triazolo[1,5-a]pyridin-7-yl)-2-fluoro-N-(3-(2-fluorophenyl)-3-hydroxypropyl)-6-methylbenzamide] | 18 nM |  | > 15000 nM | 21 nM |  |  |  |  | 
5 | Cc1c(F)cc(-c2ccn3nc(N)nc3c2)cc1C(=O)NCCC(C)c1ccccc1 (stereo not shown) [Example 95, 5-{2-amino-[1,2,4]triazolo[1,5-a]pyridin-7-yl}-3-fluoro-2-methyl-N-(3-phenylbutyl)benzamide] | 3 nM | 5.9 nM | > 15000 nM |  |  |  |  |  | 
6 | Cc1cc(F)c(-c2ccn3nc(N)nc3c2)cc1C(=O)NCCC(O)c1ccc(Cl)cn1 (single isomer, unassigned) [Example 7, 5-(2-amino-[1,2,4]triazolo[1,5-a]pyridin-7-yl)-N-(3-(5-chloropyridin-2-yl)-3-hydroxypropyl)-4-fluoro-2-methylbenzamide] | 10 nM |  | > 15000 nM | 13 nM |  |  |  |  | 
7 | Cc1ccc(-c2ccn3nc(N)nc3c2)c(F)c1C(=O)NCCC(O)c1ccc(Cl)cc1F (single isomer, unassigned) [Example 68, 3-(2-amino-[1,2,4]triazolo[1,5-a]pyridin-7-yl)-N-(3-(4-chloro-2-fluorophenyl)-3-hydroxypropyl)-2-fluoro-6-methylbenzamide] | 3.6 nM | 0.6 nM | > 15000 nM |  |  |  |  |  | 
8 | Cc1ccc(-c2ccn3nc(N)nc3c2)c(F)c1C(=O)NCCC(O)c1c(F)cccc1F (single isomer, unassigned) [Example 74, 3-(2-amino-[1,2,4]triazolo[1,5-a]pyridin-7-yl)-Nr-(3-(2,6-difluorophenyl)-3-hydroxypropyl)-2-fluoro-6-methylbenzamide] | 13 nM | 8.2 nM | > 15000 nM |  |  |  |  |  | 
9 | Cc1ccc(-c2ccn3nc(N)nc3c2F)c(F)c1C(=O)NCC[C@H](O)c1ccc(Cl)cc1 [Example 132, (S)-3-(2-amino-8-fluoro-[1,2,4]triazolo[1,5-a]pyridin-7-yl)-N-(3-(4-chlorophenyl)-3-hydroxypropyl)-2-fluoro-6-methylbenzamide] | 8.4 nM | 1.1 nM | > 15000 nM |  |  |  |  |  | 
10 | Cc1ccc(-c2ccn3nc(N)nc3c2)c(F)c1C(=O)NCC[C@@H](O)c1ccc(Cl)cc1 [Example 152, (R)-3-(2-amino-[1,2,4]triazolo[1,5-a]pyridin-7-yl)-N-(3-(4-chlorophenyl)-3-hydroxypropyl)-2-fluoro-6-methylbenzamide] | 2.3 nM | 0.5 nM | > 15000 nM |  | 2.3 nM | 0.5 nM |  |  | 
11 | Nc1nc2cc(-c3ccc(Cl)c(C(=O)NC[C@@H](F)[C@H](O)c4ccc(F)cc4)c3F)ccn2n1 (single isomer, unassigned) [Example 297] | 3.7 nM | 1.6 nM | > 15000 nM |  |  |  |  |  | 
12 | Cc1ccc(-c2ccn3nc(N)nc3c2)c(F)c1C(=O)NCC(F)(F)C(O)c1ccc(F)cn1 (stereo not shown) [Example 115, 3-{2-amino-[1,2,4]triazolo[1,5-a]pyridin-7-yl}-N-[2,2-difluoro-3-(5-fluoropyridin-2-yl)-3-hydroxypropyl]-2-fluoro-6-methylbenzamide] | 3.6 nM |  |  |  |  |  | 1.4 nM | > 15000 nM | 
13 | Cc1cc(F)c(-c2ccn3nc(N)nc3c2)c(F)c1C(=O)NCC[C@H](O)c1ccc(Cl)cc1 [Example 277, (S)-3-(2-amino-[1,2,4]triazolo[1,5-a]pyridin-7-yl)-N-(3-(4-chlorophenyl)-3-hydroxypropyl)-2,4-difluoro-6-methylbenzamide] | 36 nM | 69 nM | > 15000 nM |  |  |  |  |  | 
14 | Nc1nc2cc(-c3ccc(Cl)c(C(=O)NCC(F)(F)C(O)c4ccc(OC(F)F)cc4)c3F)ccn2n1 (stereo not shown) [Example 186, 3-(2-amino-[1,2,4]triazolo[1,5-a]pyridin-7-yl)-6-chloro-N-(3-(4-(difluoromethoxy)phenyl)-2,2-difluoro-3-hydroxypropyl)-2-fluorobenzamide] | 2.9 nM |  | 12000 nM | 0.2 nM |  |  |  |  | 
15 | Cc1ccc(-c2ccn3nc(N)nc3c2)c(F)c1C(=O)NCCC(C)(O)c1ccc(Cl)cc1 (single isomer, unassigned) [Example 59, 3-(2-amino-[1,2,4]triazolo[1,5-a]pyridin-7-yl)-N-(3-(4-chlorophenyl)-3-hydroxybutyl)-2-fluoro-6-methylbenzamide] | 2.5 nM | 1.2 nM | > 15000 nM |  |  |  |  |  | 
16 | Cc1ccc(-c2ccn3nc(N)nc3c2)c(F)c1C(=O)NC(C)CC(O)c1ccc(F)cc1 (single isomer, unassigned) [Example 37, 3-(2-amino-[1,2,4]triazolo[1,5-a]pyridin-7-yl)-2-fluoro-N-(4-(4-fluorophenyl)-4-hydroxybutan-2-yl)-6-methylbenzamide] | 21 nM |  | > 15000 nM | 41 nM |  |  |  |  | 
17 | C#Cc1ccc([C@@H](O)CCNC(=O)c2c(C)ccc(-c3ccn4nc(N)nc4c3)c2F)cc1 [Example 142, 3-{2-amino-[1,2,4]triazolo[1,5-a]pyridin-7-yl}-N-[(3S)-3-(4-ethynylphenyl)-3-hydroxypropyl]-2-fluoro-6-methylbenzamide] | 3.3 nM | 2.5 nM | > 15000 nM |  |  |  |  |  | 
18 | Nc1nc2cc(-c3ccc(Cl)c(C(=O)NCC[C@@H](O)c4ccc(Cl)cc4)c3F)ccn2n1 [Example 154, (R)-3-(2-amino-[1,2,4]triazolo[1,5-a]pyridin-7-yl)-6-chloro-N-(3-(4-chlorophenyl)-3-hydroxypropyl)-2-fluorobenzamide] | 4.7 nM | 1.4 nM | > 15000 nM |  |  |  |  |  | 
19 | [2H]C([2H])(CC([2H])(O)c1ccc(Cl)cc1)NC(=O)c1c(C)ccc(-c2ccn3nc(N)nc3c2)c1F (racemic) [Example 14, 3-(2-amino-[1,2,4]triazolo[1,5-a]pyridin-7-yl)-N-(3-(4-chlorophenyl)-3-hydroxypropyl-1,1,3-d3)-2-fluoro-6-methylbenzamide] | 1.1 nM | 1.1 nM | > 15000 nM |  |  |  |  |  | 
20 | Cc1cc(F)c(-c2ccn3nc(N)nc3c2)cc1C(=O)NCC(F)(F)C(O)c1ccc(F)cc1 (single isomer, unassigned) [Example 97, 5-(2-amino-[1,2,4]triazolo[1,5-a]pyridin-7-yl)-N-(2,2-difluoro-3-(4-fluorophenyl)-3-hydroxypropyl)-4-fluoro-2-methylbenzamide] | 1.3 nM |  | > 15000 nM | 6.4 nM |  |  |  |  | 
21 | Cc1ccc(-c2ccn3nc(N)nc3c2)c(F)c1C(=O)NC(CF)CC(O)c1ccc(F)cc1 (single isomer, unassigned) [Example 27, 3-(2-amino-[1,2,4]triazolo[1,5-a]pyridin-7-yl)-2-fluoro-N-(1-fluoro-4-(4-fluorophenyl)-4-hydroxybutan-2-yl)-6-methylbenzamide] | 60 nM |  | > 15000 nM | 198 nM |  |  |  |  | 
22 | Cc1ccc(-c2ccn3nc(N)nc3c2)c(F)c1C(=O)NCCC(O)c1ccc(F)c(F)c1 (single isomer, unassigned) [Example 67, 3-(2-amino-[1,2,4]triazolo[1,5-a]pyridin-7-yl)-N-(3-(3,4-difluorophenyl)-3-hydroxypropyl)-2-fluoro-6-methylbenzamide] | 4.4 nM |  | > 15000 nM | 1.3 nM | 4.4 nM |  |  |  | 1.3 nM
23 | Nc1nc2cc(-c3ccc(Cl)c(C(=O)NC[C@H](F)[C@@H](O)c4ccc(F)cc4)c3F)ccn2n1 (single isomer, unassigned) [Example 296] | 15 nM | 22 nM | 10000 nM |  |  |  |  |  | 
